Reference: ChEMBL document CHEMBL4190307, “Design, synthesis and biological evaluation of novel coumarin-N-benzyl pyridinium hybrids as multi-target agents for the treatment of Alzheimer's disease” (Eur J Med Chem, 2017)
pIC50: −log10 of the molar value. The source made the active and inactive calls. No cut-off for these calls is given here.

Tests used:
Cholinesterase [1] = target: Cholinesterase (Equus caballus, UniProt P81908); experiment: Inhibition of equine serum BuChE using S-butyrylthiocholine iodide as substrate preincubated for 6 mins followed by substrate addition measured up to 180 secs by Ellman's method
Cholinesterase (Equus caballus, UniProt P81908), sequence (P81908 whole entry): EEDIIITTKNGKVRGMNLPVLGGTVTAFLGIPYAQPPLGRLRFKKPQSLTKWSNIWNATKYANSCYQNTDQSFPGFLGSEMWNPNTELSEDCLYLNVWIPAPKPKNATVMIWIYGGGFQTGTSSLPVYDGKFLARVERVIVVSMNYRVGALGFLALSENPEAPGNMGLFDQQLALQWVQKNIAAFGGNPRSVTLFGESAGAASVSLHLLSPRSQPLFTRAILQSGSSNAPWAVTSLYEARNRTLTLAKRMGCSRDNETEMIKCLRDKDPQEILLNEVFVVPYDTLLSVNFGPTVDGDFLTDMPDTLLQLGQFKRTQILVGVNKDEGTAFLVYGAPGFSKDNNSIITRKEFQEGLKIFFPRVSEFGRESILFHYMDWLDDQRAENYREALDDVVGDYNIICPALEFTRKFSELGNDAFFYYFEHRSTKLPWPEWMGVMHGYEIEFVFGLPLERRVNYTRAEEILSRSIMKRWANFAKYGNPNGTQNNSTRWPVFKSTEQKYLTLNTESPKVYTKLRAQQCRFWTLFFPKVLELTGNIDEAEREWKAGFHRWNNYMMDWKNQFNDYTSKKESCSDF

Acetylcholinesterase [2] = target: Acetylcholinesterase (Homo sapiens, UniProt P22303); experiment: Inhibition of human AChE using acetylthiocholine iodide as substrate preincubated for 6 mins followed by substrate addition measured up to 180 secs by Ellman's method
Acetylcholinesterase (Homo sapiens, UniProt P22303), sequence (P22303 whole entry): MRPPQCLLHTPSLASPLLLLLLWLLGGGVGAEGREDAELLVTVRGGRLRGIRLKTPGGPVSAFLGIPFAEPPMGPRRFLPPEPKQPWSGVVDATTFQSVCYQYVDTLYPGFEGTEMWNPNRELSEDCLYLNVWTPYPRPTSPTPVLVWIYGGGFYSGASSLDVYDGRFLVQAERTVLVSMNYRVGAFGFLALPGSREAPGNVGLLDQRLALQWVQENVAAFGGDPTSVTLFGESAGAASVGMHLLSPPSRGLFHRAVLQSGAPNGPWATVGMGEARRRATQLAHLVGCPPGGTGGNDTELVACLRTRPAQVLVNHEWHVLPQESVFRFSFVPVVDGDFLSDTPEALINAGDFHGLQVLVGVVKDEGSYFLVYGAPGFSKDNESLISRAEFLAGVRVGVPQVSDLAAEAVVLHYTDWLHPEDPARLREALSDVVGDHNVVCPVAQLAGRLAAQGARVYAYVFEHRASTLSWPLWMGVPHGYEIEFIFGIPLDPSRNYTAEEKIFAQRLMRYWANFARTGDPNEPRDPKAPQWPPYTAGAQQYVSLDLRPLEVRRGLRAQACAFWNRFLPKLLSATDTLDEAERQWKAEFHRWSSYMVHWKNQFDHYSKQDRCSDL

Homo sapiens [3] = species on record: Homo sapiens; experiment: Selectivity index, ratio of IC50 for recombinant human MAOA to IC50 for recombinant human MAOB
PC-12 = experiment: Cytotoxicity against rat PC12 cells assessed as reduction in cell viability at 100 uM after 24 hrs by MTT assay relative to control; assay type: cell-based; details: pc-12, 24 h
Acetylcholinesterase [4] = target: Acetylcholinesterase (Electrophorus electricus, UniProt O42275); experiment: Inhibition of electric eel AChE using acetylthiocholine iodide as substrate preincubated for 6 mins followed by substrate addition measured up to 180 secs by Ellman's method
Acetylcholinesterase (Electrophorus electricus, UniProt O42275), sequence (O42275 whole entry): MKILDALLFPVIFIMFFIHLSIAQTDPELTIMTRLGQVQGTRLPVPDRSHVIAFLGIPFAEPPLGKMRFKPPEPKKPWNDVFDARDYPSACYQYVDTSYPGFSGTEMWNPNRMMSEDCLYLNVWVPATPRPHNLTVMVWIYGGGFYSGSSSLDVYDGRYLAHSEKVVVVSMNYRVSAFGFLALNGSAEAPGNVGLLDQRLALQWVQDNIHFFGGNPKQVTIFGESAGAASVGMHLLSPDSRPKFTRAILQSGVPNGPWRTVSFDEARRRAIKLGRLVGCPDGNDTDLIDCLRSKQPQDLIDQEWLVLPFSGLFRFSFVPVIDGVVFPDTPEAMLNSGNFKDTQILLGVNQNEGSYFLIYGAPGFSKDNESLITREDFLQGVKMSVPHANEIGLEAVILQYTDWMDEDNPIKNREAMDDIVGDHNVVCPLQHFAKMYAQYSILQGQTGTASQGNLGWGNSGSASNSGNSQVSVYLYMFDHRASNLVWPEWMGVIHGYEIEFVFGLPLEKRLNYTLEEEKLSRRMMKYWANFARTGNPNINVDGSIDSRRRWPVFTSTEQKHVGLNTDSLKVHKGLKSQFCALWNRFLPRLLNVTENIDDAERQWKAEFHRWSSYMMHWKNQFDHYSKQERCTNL

Homo sapiens [5] = species on record: Homo sapiens; experiment: Selectivity index, ratio of IC50 for human serum BuChE to IC50 for human AChE
[6] = Selectivity index, ratio of IC50 for equine serum BuChE to IC50 for electric eel AChE
[7] = target: Amyloid-beta precursor protein (Homo sapiens) (UniProt P05067); experiment: Inhibition of self-induced amyloid beta (1 to 42) (unknown origin) aggregation at 20 uM after 46 to 48 hrs by thioflavin T-based fluorescence assay relative to control
Amyloid-beta precursor protein (Homo sapiens), sequence (P05067 whole entry): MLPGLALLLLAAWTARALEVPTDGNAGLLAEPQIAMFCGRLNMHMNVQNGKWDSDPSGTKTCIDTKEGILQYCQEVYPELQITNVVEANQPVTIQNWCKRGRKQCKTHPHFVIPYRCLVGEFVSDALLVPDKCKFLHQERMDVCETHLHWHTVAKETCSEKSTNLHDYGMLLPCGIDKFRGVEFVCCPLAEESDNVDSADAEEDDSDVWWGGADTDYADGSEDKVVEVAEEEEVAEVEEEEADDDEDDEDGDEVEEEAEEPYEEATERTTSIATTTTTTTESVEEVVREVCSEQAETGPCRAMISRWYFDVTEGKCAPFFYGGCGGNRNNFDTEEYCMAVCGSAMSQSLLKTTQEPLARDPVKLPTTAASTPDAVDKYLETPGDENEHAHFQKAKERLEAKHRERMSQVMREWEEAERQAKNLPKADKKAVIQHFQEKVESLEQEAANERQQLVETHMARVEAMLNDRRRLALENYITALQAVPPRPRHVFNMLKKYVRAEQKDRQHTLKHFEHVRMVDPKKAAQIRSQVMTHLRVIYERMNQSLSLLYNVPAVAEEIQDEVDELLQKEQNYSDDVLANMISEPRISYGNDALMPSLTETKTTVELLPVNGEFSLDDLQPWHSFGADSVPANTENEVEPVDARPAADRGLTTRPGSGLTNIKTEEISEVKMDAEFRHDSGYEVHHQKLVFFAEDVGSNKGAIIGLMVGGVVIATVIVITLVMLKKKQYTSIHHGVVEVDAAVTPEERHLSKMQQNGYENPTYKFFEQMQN

[8] = target: T1, Amine oxidase [flavin-containing] A (Homo sapiens, UniProt P21397); experiment: Inhibition of recombinant human MAOA at 10 uM using p-tyramine as substrate after 15 mins by resorufin dye-based fluorometric method relative to control; details: 0.25 h
T1 sequence (P21397 whole entry): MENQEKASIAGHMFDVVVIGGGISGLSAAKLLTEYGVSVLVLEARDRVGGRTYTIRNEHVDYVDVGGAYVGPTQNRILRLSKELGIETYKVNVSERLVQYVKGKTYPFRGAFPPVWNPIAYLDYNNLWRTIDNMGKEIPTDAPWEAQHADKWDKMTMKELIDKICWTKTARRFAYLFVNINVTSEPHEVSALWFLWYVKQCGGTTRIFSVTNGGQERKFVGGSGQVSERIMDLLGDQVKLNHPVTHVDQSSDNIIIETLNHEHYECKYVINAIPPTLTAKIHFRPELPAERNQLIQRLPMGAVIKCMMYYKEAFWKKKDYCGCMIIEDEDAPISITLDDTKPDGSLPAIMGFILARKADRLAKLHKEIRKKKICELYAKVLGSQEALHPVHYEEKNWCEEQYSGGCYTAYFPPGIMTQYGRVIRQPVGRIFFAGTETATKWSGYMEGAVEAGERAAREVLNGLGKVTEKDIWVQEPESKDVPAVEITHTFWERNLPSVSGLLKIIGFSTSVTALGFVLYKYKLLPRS

[9] = target: T2, Amine oxidase [flavin-containing] B (Homo sapiens, UniProt P27338)
T2 sequence (P27338 whole entry): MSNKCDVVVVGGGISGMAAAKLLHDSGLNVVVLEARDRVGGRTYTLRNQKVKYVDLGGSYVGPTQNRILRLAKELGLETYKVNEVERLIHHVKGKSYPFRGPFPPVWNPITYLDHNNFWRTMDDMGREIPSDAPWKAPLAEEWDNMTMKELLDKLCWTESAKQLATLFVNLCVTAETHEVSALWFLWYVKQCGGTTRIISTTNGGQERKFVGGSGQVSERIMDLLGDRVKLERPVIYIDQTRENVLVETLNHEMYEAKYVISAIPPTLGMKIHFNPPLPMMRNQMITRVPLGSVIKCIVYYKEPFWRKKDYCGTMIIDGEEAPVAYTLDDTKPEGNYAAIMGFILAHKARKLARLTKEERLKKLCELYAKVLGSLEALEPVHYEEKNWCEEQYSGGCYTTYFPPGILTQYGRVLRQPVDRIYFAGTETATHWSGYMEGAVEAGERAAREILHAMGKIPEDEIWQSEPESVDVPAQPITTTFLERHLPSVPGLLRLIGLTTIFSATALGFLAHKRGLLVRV
Description: Inhibition of recombinant human MAOB using p-tyramine as substrate after 15 mins by Amplex Red dye-based fluorometric method

[10] = target: T1, Amine oxidase [flavin-containing] A; experiment: Inhibition of recombinant human MAOA using p-tyramine as substrate after 15 mins by Amplex Red dye-based fluorometric method
[11] = target: Acetylcholinesterase (Electrophorus electricus) (UniProt O42275); experiment: Potency index, ratio of IC50 for donepezil to IC50 for test compound for inhibition of electric eel AChE using acetylthiocholine iodide as substrate preincubated for 6 mins followed by substrate addition measured up to 180 secs by Ellman's method
Acetylcholinesterase (Electrophorus electricus), sequence (O42275 24-633 limits assumed): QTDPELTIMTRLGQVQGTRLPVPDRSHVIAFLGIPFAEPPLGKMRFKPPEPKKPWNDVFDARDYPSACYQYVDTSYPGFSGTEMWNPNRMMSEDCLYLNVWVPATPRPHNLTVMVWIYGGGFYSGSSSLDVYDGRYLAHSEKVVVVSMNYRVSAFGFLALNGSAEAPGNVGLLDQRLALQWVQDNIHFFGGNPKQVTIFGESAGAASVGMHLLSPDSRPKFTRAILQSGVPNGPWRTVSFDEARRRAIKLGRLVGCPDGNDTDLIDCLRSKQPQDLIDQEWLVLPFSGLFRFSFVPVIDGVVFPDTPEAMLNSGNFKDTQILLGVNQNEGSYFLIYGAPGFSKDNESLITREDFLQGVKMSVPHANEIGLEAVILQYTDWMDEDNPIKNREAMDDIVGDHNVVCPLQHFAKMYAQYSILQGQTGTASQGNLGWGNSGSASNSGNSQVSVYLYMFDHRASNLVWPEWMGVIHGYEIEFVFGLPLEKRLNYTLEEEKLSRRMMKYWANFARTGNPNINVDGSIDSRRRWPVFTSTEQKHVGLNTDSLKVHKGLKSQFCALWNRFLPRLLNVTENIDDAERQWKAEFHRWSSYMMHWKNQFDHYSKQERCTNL

[12] = target: T2, Amine oxidase [flavin-containing] B; experiment: Inhibition of recombinant human MAOB at 10 uM using p-tyramine as substrate after 15 mins by resorufin dye-based fluorometric method relative to control; details: 0.25 h
Cholinesterase [13] = target: Cholinesterase (Homo sapiens, UniProt P06276)
Cholinesterase (Homo sapiens, UniProt P06276), sequence (P06276 whole entry): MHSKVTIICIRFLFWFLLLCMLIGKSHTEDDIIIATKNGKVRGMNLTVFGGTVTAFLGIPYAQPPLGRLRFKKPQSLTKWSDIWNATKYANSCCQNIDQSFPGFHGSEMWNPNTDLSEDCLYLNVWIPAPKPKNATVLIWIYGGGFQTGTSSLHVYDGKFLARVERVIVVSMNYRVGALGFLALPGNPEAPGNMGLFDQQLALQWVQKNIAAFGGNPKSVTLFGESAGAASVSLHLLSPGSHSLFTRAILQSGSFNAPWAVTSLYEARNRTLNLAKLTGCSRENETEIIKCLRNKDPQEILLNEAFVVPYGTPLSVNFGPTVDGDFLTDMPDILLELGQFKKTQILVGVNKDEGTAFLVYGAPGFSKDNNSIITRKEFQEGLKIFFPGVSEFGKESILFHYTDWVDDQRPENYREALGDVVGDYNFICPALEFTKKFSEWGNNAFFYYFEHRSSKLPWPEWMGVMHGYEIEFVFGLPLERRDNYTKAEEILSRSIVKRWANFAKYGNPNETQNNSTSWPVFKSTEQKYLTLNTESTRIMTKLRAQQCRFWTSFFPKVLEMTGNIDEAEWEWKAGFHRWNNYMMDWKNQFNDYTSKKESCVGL
Description: Inhibition of human serum BuChE using S-butyrylthiocholine iodide as substrate preincubated for 6 mins followed by substrate addition measured up to 180 secs by Ellman's method

[14] = target: T2, Amine oxidase [flavin-containing] B; experiment: Reversible inhibition of recombinant human MAO-B assessed as enzyme activity recovery at 100 times IC50 using p-tyramine as substrate preincubated for 30 mins followed by 100 fold compound dilution by Amplex Red dye-based fluorometric method relative to control; set-up: scale not given: the % may be the effect or the level left
[15] = target: T2, Amine oxidase [flavin-containing] B; experiment: Reversible inhibition of recombinant human MAO-B assessed as enzyme activity recovery at 10 times IC50 using p-tyramine as substrate preincubated for 30 mins followed by 100 fold compound dilution by Amplex Red dye-based fluorometric method relative to control; set-up: scale not given: the % may be the effect or the level left
[16] = target: Acetylcholinesterase (Electrophorus electricus) (UniProt O42275); experiment: Mixed type inhibition of electric eel AChE up to 80 nM using acetylthiocholine iodide as substrate preincubated for 6 mins followed by substrate addition measured up to 180 secs by Lineweaver-burk plot method
[17] = target: T2, Amine oxidase [flavin-containing] B; experiment: Competitive inhibition of recombinant human MAOB up to 3 uM using p-tyramine as substrate after 15 mins by Lineweaver-burk plot method; details: 0.25 h

Row | SMILES | pIC50 (Cholinesterase [1]) | pIC50 (Acetylcholinesterase [2]) | Ratio IC50 (Homo sapiens [3]) | Activity (PC-12) [%] | pIC50 (Acetylcholinesterase [4]) | Ratio IC50 (Homo sapiens [5]) | Ratio IC50 [6] | inhibition [7] [%] | inhibition at 10 µM [8] [%] | pIC50 [9] | pIC50 [10] | Ratio IC50 [11] | inhibition at 10 µM [12] [%] | pIC50 (Cholinesterase [13]) | Activity [14] [%] | Activity [15] [%] | inhibition [16] | inhibition (INH) [17]
1 | Cc1ccc(C[n+]2ccc(COc3ccc4c(C)cc(=O)oc4c3)cc2)cc1.[Br-] | 5.12 | 6.60 | > 2.56 | 99.4 | 6.87 | > 40 | 56.3 | 58.5 | 9.05 | 5.41 | – | – | – | – | – | – | – | –
2 | Cc1cc(=O)oc2cc(OCc3cc[n+](Cc4ccccc4F)cc3)ccc12.[Br-] | 5.79 | 7.19 | > 2.37 | 100.8 | 7.53 | > 153 | 55.6 | 53.7 | 11.5 | 5.38 | – | – | – | – | – | – | – | –
3 | Cc1cc(=O)oc2cc(OCc3cc[n+](Cc4ccc([N+](=O)[O-])cc4)cc3)ccc12.[Br-] | – | 5.97 | > 1.45 | 99.5 | 5.93 | > 9.3 | > 8.4 | 37.7 | 18.6 | 5.16 | – | – | – | – | – | – | – | –
4 | Cc1cc(=O)oc2cc(OCc3cc[n+](Cc4cccc([N+](=O)[O-])c4)cc3)ccc12.[Br-] | 5.36 | 6.64 | – | 98.4 | 7.42 | – | – | 42.8 | – | – | – | – | – | – | – | – | – | –
5 | Cc1cc(=O)oc2cc(OCc3cc[n+](Cc4ccc(F)cc4)cc3)ccc12.[Br-] | 5.53 | 7.43 | 0.46 | 94.8 | 7.54 | > 271 | 101 | 49.1 | – | 5.00 | 5.34 | – | – | – | – | – | – | –
6 | Cc1cc(=O)oc2cc(OCc3cc[n+](Cc4cccc(F)c4)cc3)ccc12.[Br-] | 5.56 | 7.38 | > 3.48 | 99.6 | 7.59 | > 240 | 106 | 50.8 | 34.3 | 5.54 | – | 1.9 | – | – | – | – | – | –
7 | Cc1cc(=O)oc2cc(O)ccc12 [HYMECROMONE] | < 4.00 | – | – | – | < 4.00 | – | – | – | – | – | – | – | – | – | – | – | – | –
8 | Cc1cc(=O)oc2cc(OCc3cc[n+](Cc4ccccc4)cc3)ccc12.[Br-] | 5.37 | 6.45 | 6.92 | 97.5 | 6.42 | > 28.4 | 11.2 | 39.3 | 5.04 | – | – | – | 34.9 | – | – | – | – | –
9 | Cc1ccccc1C[n+]1ccc(COc2ccc3c(C)cc(=O)oc3c2)cc1.[Br-] | 5.79 | 7.45 | > 3.16 | 97.1 | 7.60 | > 282 | 64.7 | 55.2 | 13.9 | 5.50 | – | 1.9 | – | – | – | – | – | –
10 | Cc1cc(=O)oc2cc(OCc3cc[n+](Cc4ccc(Br)cc4)cc3)ccc12.[Br-] | 5.31 | 6.66 | > 2.58 | 98.5 | 6.92 | > 41.1 | 41.1 | 67.6 | 29.9 | 5.41 | – | – | – | – | – | – | – | –
11 | Cc1cc(=O)oc2cc(OCc3cc[n+](Cc4ccccc4Br)cc3)ccc12.[Br-] | 6.32 | 7.11 | > 2.5 | 97.6 | 7.44 | 106 | 13.2 | 63.7 | 15.1 | 5.40 | – | – | – | 5.08 | – | – | – | –
12 | Cc1cc(=O)oc2cc(OCc3cc[n+](Cc4cccc(Br)c4)cc3)ccc12.[Br-] | 5.36 | 6.89 | > 4.56 | 96.8 | 7.20 | > 77.8 | 69.8 | 62.7 | 44.6 | 5.66 | – | – | – | – | – | – | – | –
13 | Cc1cccc(C[n+]2ccc(COc3ccc4c(C)cc(=O)oc4c3)cc2)c1.[Br-] | 5.63 | 7.08 | > 6.37 | 101.5 | 7.43 | > 120 | 62.2 | 62.1 | 14.8 | 5.80 | – | – | – | – | 47 | 86 | Active | Active
